Measurements taken from the supplement of paper PMC11208160.

Assay: recombinant barcode read abundance after kanamycin selection (control-corrected) (log10(CPM+1)); higher = more efficient recombination; sequences stand for … in AGTGCAGAGAAAATCGGCCAGTTTTCTCTGCCTGCAGTCCGCATGCCGT…AGATTTATGCAGCGGACTGCCTTTCTCCCAAAGTGATAAACCGGACAGTATCATGGACCGGTTTTCCCGGTAATCCGTATTTGCAAGGTTGGTTTCACT; site = the 11-nt target
How it was run: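 A vector carrying a T7-inducible recombinase and the last 73 bp of the bridge RNA received, by Gibson cloning, oligos encoding a promoter, target, barcode and the first 104 bridge RNA bases under J23119. The pooled constructs entered E. coli together with a donor plasmid by electroporation. Selection used chloramphenicol/ampicillin/kanamycin with 0.1 mM IPTG, with chloramphenicol/ampicillin LB agar as the control, each in two replicates. Recombination efficiency is the averaged, control-corrected counts-per-million of barcodes at recombinant junctions, reported as log10(CPM+1).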
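Further: IS621 recombinase and bridge RNA in Escherichia coli cells.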

With “CACTTCCCTTGGGTTCTAACCTGTTGCAT (site CACTTCCCTAC)” as the sequence, how does the “recombinant barcode read abundance (log10)” value read?
The value was 0.106.

For “CACTTCCCTTGGGTTCTAACCTGTTGCAT (site CACTTCCCTAG)”, which “recombinant barcode read abundance (log10)” value is on record?
The value was 0.316.

Which “recombinant barcode read abundance (log10)” value does the source give for “CACTTCCCTTGGGTTCTAACCTGTTGCAT (site CACTTCCCTAT)” here?
Its value is 1.93.

For “CACTTCCCTTGGGTTCTAACCTGTTGCGA (site AGTGAAGCTGT)”, which “recombinant barcode read abundance (log10)” value is on record?
The value was 0.222.

Which “recombinant barcode read abundance (log10)” value does the source give for “CACTTCCCTTGGGTTCTAACCTGTTGCGA (site CACTTCCCTTC)” here?
The value was 0.492.

For “CACTTCCCTTGGGTTCTAACCTGTTGCGT (site CACTTCCCTAA)”, which “recombinant barcode read abundance (log10)” value is on record?
The value was 0.0684.

Which “recombinant barcode read abundance (log10)” value does the source give for “CACTTCCCTTGGGTTCTAACCTGTTGCGT (site CACTTCCCTAC)” here?
Its value is 2.4.

With “CACTTCCCTTGGGTTCTAACCTGTTGCGT (site CACTTCCCTAG)” as the sequence, how does the “recombinant barcode read abundance (log10)” value read?
Its value is 0.402.

With “CACTTCCCTTGGGTTCTAACCTGTTGCGT (site CACTTCCCTAT)” as the sequence, how does the “recombinant barcode read abundance (log10)” value read?
The value was 1.5.

With “CACTTGGCTTGGGTTCTAACCTGTTGCCT (site CACTTGACTAG)” as the sequence, how does the “recombinant barcode read abundance (log10)” value read?
The value was 0.0371.

For “CACTTGGCTTGGGTTCTAACCTGTTGCCT (site CACTTGCCTAG)”, which “recombinant barcode read abundance (log10)” value is on record?
Its value is 0.366.

With “CACTTGGCTTGGGTTCTAACCTGTTGCCT (site CACTTGGCTAG)” as the sequence, how does the “recombinant barcode read abundance (log10)” value read?
The value was 0.134.

With “CACTTGGCTTGGGTTCTAACCTGTTGCCT (site CACTTGTCTAG)” as the sequence, how does the “recombinant barcode read abundance (log10)” value read?
Its value is 0.0944.

With “CAGAACACTTGGGTTCTAACCTGTTGCCT (site AAGAACACTAG)” as the sequence, how does the “recombinant barcode read abundance (log10)” value read?
The value was 0.0991.

Which “recombinant barcode read abundance (log10)” value does the source give for “CAGAACACTTGGGTTCTAACCTGTTGCCT (site CAGAACACTAG)” here?
The value was 1.94.

Which “recombinant barcode read abundance (log10)” value does the source give for “CAGAACACTTGGGTTCTAACCTGTTGCCT (site GAGAACACTAG)” here?
Its value is 0.198.

Which “recombinant barcode read abundance (log10)” value does the source give for “CAGAACACTTGGGTTCTAACCTGTTGCCT (site TAGAACACTAG)” here?
Its value is 0.171.

Which “recombinant barcode read abundance (log10)” value does the source give for “CAGCCCTCTTGGGTTCTAACCTGTTGCCT (site CAGCCCTCTAG)” here?
Its value is 2.59.

With “CAGCCCTCTTGGGTTCTAACCTGTTGCCT (site CCGCCCTCTAG)” as the sequence, how does the “recombinant barcode read abundance (log10)” value read?
Its value is 0.883.

With “CAGCCCTCTTGGGTTCTAACCTGTTGCCT (site CGGCCCTCTAG)” as the sequence, how does the “recombinant barcode read abundance (log10)” value read?
The value was 0.0354.

Which “recombinant barcode read abundance (log10)” value does the source give for “CAGCCCTCTTGGGTTCTAACCTGTTGCCT (site CTGCCCTCTAG)” here?
Its value is 0.315.

Which “recombinant barcode read abundance (log10)” value does the source give for “CAGCTACCTTGGGTTCTAACCTGTTGCCT (site CAGCTACCTAG)” here?
Its value is 1.73.

Which “recombinant barcode read abundance (log10)” value does the source give for “CAGCTACCTTGGGTTCTAACCTGTTGCCT (site CCGCTACCTAG)” here?
Its value is 0.334.

For “CAGCTACCTTGGGTTCTAACCTGTTGCCT (site CGGCTACCTAG)”, which “recombinant barcode read abundance (log10)” value is on record?
Its value is 0.226.

With “CAGCTACCTTGGGTTCTAACCTGTTGCCT (site CTGCTACCTAG)” as the sequence, how does the “recombinant barcode read abundance (log10)” value read?
Its value is 0.585.

Which “recombinant barcode read abundance (log10)” value does the source give for “CAGGACTCTTGGGTTCTAACCTGTTGCTT (site CAGCACTCTTA)” here?
The value was 0.0832.

Which “recombinant barcode read abundance (log10)” value does the source give for “CAGGACTCTTGGGTTCTAACCTGTTGCTT (site CAGGACTCTAA)” here?
The value was 2.85.

For “CAGGCGGCTTGGGTTCTAACCTGTTGCCT (site CAGGCGACTAG)”, which “recombinant barcode read abundance (log10)” value is on record?
Its value is 0.117.

With “CAGGCGGCTTGGGTTCTAACCTGTTGCCT (site CAGGCGCCTAG)” as the sequence, how does the “recombinant barcode read abundance (log10)” value read?
Its value is 0.254.

For “CAGGCGGCTTGGGTTCTAACCTGTTGCCT (site CAGGCGGCTAG)”, which “recombinant barcode read abundance (log10)” value is on record?
The value was 0.829.

With “CAGGCGGCTTGGGTTCTAACCTGTTGCCT (site CAGGCGTCTAG)” as the sequence, how does the “recombinant barcode read abundance (log10)” value read?
Its value is 0.0685.

For “CAGGGTCCTTGGGTTCTAACCTGTTGCGG (site CAGGGTCCTCC)”, which “recombinant barcode read abundance (log10)” value is on record?
The value was 3.55.

Which “recombinant barcode read abundance (log10)” value does the source give for “CAGGGTCCTTGGGTTCTAACCTGTTGCGG (site TAGGGTTCTCC)” here?
Its value is 0.0367.

With “CAGTCAGCTTGGGTTCTAACCTGTTGCCT (site CAGTCAGCTAG)” as the sequence, how does the “recombinant barcode read abundance (log10)” value read?
The value was 1.16.

For “CAGTCAGCTTGGGTTCTAACCTGTTGCCT (site GTAAGGACTCC)”, which “recombinant barcode read abundance (log10)” value is on record?
The value was 0.0866.

With “CAGTCCTCTTGGGTTCTAACCTGTTGCTG (site CAGTCCTCTCA)” as the sequence, how does the “recombinant barcode read abundance (log10)” value read?
Its value is 2.23.
